According to PubChem BioAssay AID330 (DTP/NCI, 2004):
Values joined by “and” are separate entries in the source; they are usually repeats but may differ in a detail not shown here. Equal values may be shown once. Toxic doses and inconclusive results are not listed.

System: P388 leukemia ip, CD2F1 mice, survival T/C
Test: NCI In Vivo Anticancer Drug Screen. Data for tumor model P388 Leukemia (intraperitoneal) in CD2F1 (CDF1) mice
Details: endpoint: median survival time, higher = longer survival
How it was run: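 Mice carrying the transplanted tumor received test compound or vehicle. Survival was recorded in each group, and the value is the treated-group measurement divided by that of the vehicle-treated control group.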

[1] = dose: 100.0 mg/kg/injection, schedule: Q04DX002 (ip), vehicle: Klucel (hydroxypropylcellulose) (HPC)
[2] = dose: 200.0 mg/kg/injection, schedule: Q04DX002 (ip), vehicle: Klucel (hydroxypropylcellulose) (HPC)
[3] = dose: 60.0 mg/kg/injection, schedule: Q01DX005 (ip), vehicle: saline with Tween-80
[4] = dose: 120.0 mg/kg/injection, schedule: Q01DX005 (ip), vehicle: saline with Tween-80
[5] = dose: 240.0 mg/kg/injection, schedule: Q01DX005 (ip), vehicle: saline with Tween-80
[6] = dose: 50.0 mg/kg/injection, schedule: Q01DX005 (ip), vehicle: saline with Tween-80
[7] = dose: 100.0 mg/kg/injection, schedule: Q01DX005 (ip), vehicle: saline with Tween-80
[8] = dose: 12.5 mg/kg/injection, schedule: Q01DX009 (ip), vehicle: saline with Tween-80
[9] = dose: 400.0 mg/kg/injection, schedule: Q04DX002 (ip), vehicle: Klucel (hydroxypropylcellulose) (HPC)
[10] = dose: 25.0 mg/kg/injection, schedule: Q01DX009 (ip), vehicle: other
[11] = dose: 50.0 mg/kg/injection, schedule: Q01DX005 (ip), vehicle: Klucel (hydroxypropylcellulose) (HPC)
[12] = dose: 100.0 mg/kg/injection, schedule: Q01DX005 (ip), vehicle: Klucel (hydroxypropylcellulose) (HPC)
[13] = dose: 200.0 mg/kg/injection, schedule: Q01DX005 (ip), vehicle: Klucel (hydroxypropylcellulose) (HPC)
[14] = dose: 50.0 mg/kg/injection, schedule: Q01DX009 (ip), vehicle: Klucel (hydroxypropylcellulose) (HPC)
[15] = dose: 100.0 mg/kg/injection, schedule: Q01DX009 (ip), vehicle: Klucel (hydroxypropylcellulose) (HPC)
[16] = dose: 200.0 mg/kg/injection, schedule: Q01DX009 (ip), vehicle: Klucel (hydroxypropylcellulose) (HPC)

Cc1ccc(-c2cs/c(=N\N=C3/CSC(=O)N3Cc3ccccc3)n2-c2ccccc2)cc1
T/C [1]: 98 % of control | T/C [2]: 89 % of control

CN(C)[C@@H]1C(=O)C(C(=O)NCNc2nc3n[nH]nc3c(=O)[nH]2)=C(O)[C@@]2(O)C(=O)C3=C(O)c4c(O)cccc4[C@@](C)(O)[C@H]3C[C@@H]12
T/C (dose: 50.0 mg/kg/injection, schedule: Q04DX003 (ip), vehicle: saline): 102 % of control | T/C (dose: 100.0 mg/kg/injection, schedule: Q04DX003 (ip), vehicle: saline): 100 % of control | T/C (dose: 200.0 mg/kg/injection, schedule: Q04DX003 (ip), vehicle: saline): 107 % of control | T/C (dose: 400.0 mg/kg/injection, schedule: Q04DX003 (ip), vehicle: saline): 111 % of control

Nc1ncc2c(n1)-c1ccccc1OC2
T/C [3]: 92 % of control | T/C [4]: 103 % of control | T/C [5]: 95 % of control

COc1ccc(NC(=O)CCC(=O)Oc2ccccc2)cc1
T/C (dose: 100.0 mg/kg/injection, schedule: Q01DX009 (ip), vehicle: saline with Tween-80): 100 % of control | T/C (dose: 400.0 mg/kg/injection, schedule: Q01DX009 (ip), vehicle: saline with Tween-80): 94 % of control

CC(C)CC(NC(=O)C(Cc1cnc[nH]1)N(C(=O)OCc1ccccc1)C(=O)OCc1ccccc1)C(=O)NN (configuration not stated)
T/C [6]: 101 % of control | T/C [7]: 106 % of control | T/C (dose: 200.0 mg/kg/injection, schedule: Q01DX005 (ip), vehicle: saline with Tween-80): 106 % of control

Brc1ccc[n+](CCc2ccccc2)c1
T/C [8]: 111 % of control | T/C (dose: 25.0 mg/kg/injection, schedule: Q01DX009 (ip), vehicle: saline with Tween-80): 98 % of control

Cn1c(=O)c2nc(-c3ccccc3)nnc2n(CCO)c1=O
T/C [1]: 105 % of control | T/C [2]: 106 % of control | T/C [9]: 110 % of control

Cc1ccc(C(=O)/C(=C/c2ccccn2)N=[N+]=[N-])cc1
T/C (dose: 100.0 mg/kg/injection, schedule: Q01DX001 (ip), vehicle: saline with Tween-80): 110 % of control | T/C (dose: 200.0 mg/kg/injection, schedule: Q01DX001 (ip), vehicle: saline with Tween-80): 104 % of control | T/C (dose: 400.0 mg/kg/injection, schedule: Q01DX001 (ip), vehicle: saline with Tween-80): 99 % of control

COC1CC(C)(O)Cc2cc3c(c(O)c21)C(=O)c1c(O)cc2c(c1C3=O)OC1OC2(C)C(O)C(N(C)C)C1O (configuration not stated)
T/C (dose: 6.25 mg/kg/injection, schedule: Q01DX009 (ip), vehicle: other): 158 % of control | T/C (dose: 12.5 mg/kg/injection, schedule: Q01DX009 (ip), vehicle: other): 176 % of control | T/C [10]: 168 % of control

CCO/C=C1/N=C(c2cc(OC)cc(OC)c2)OC1=O
T/C (dose: 15.0 mg/kg/injection, schedule: Q01DX005 (ip), vehicle: saline with Tween-80): 104 % of control | T/C (dose: 30.0 mg/kg/injection, schedule: Q01DX005 (ip), vehicle: saline with Tween-80): 101 % of control | T/C [3]: 90 % of control and 96 % of control | T/C [5]: 87 % of control

CC(=O)Nc1ccc2nc(SC(C)C)sc2c1
T/C (dose: 6.25 mg/kg/injection, schedule: Q01DX009 (ip), vehicle: Klucel (hydroxypropylcellulose) (HPC)): 104 % of control | T/C (dose: 12.5 mg/kg/injection, schedule: Q01DX009 (ip), vehicle: Klucel (hydroxypropylcellulose) (HPC)): 102 % of control | T/C (dose: 25.0 mg/kg/injection, schedule: Q01DX009 (ip), vehicle: Klucel (hydroxypropylcellulose) (HPC)): 96 % of control

O=c1c2ncccc2cc2n1CCc1c-2[nH]c2ccccc12
T/C (dose: 6.25 mg/kg/injection, schedule: Q01DX009 (ip), vehicle: saline with Tween-80): 88 % of control | T/C [8]: 86 % of control

COC(=O)c1ccnc2nc[nH]c12
T/C (dose: 100.0 mg/kg/injection, schedule: Q01DX001 (ip), vehicle: water): 103 % of control | T/C (dose: 200.0 mg/kg/injection, schedule: Q01DX001 (ip), vehicle: water): 104 % of control | T/C (dose: 400.0 mg/kg/injection, schedule: Q01DX001 (ip), vehicle: water): 104 % of control

CCOC(=O)C(C)Oc1ccc(Cn2ccnn2)cc1 (configuration not stated)
T/C [3]: 98 % of control | T/C [4]: 98 % of control | T/C [5]: 96 % of control

Cc1ccc(C=C2c3ccccc3C(=O)c3ccccc32)cc1
T/C [11]: 108 % of control | T/C [12]: 107 % of control | T/C [13]: 105 % of control

C/C(CC/C(C)=N/N=C(\N)c1ccccn1)=N\N=C(/N)c1ccccn1
T/C [14]: 99 % of control | T/C [15]: 98 % of control | T/C [16]: 99 % of control

Cc1ccc(S(=O)(=O)NC(CC(N)=O)C(=O)O)cc1 (configuration not stated)
T/C [10]: 101 % of control | T/C (dose: 50.0 mg/kg/injection, schedule: Q01DX009 (ip), vehicle: other): 100 % of control | T/C (dose: 100.0 mg/kg/injection, schedule: Q01DX009 (ip), vehicle: other): 101 % of control | T/C (dose: 200.0 mg/kg/injection, schedule: Q01DX009 (ip), vehicle: other): 100 % of control | T/C (dose: 400.0 mg/kg/injection, schedule: Q01DX009 (ip), vehicle: other): 98 % of control

S=C(N/N=C\c1nc2ccccc2c2ccccc12)Nc1ccc(Br)cc1
T/C [1]: 93 % of control | T/C [2]: 93 % of control | T/C [9]: 96 % of control

O=S(=O)(CC(O)C(Cl)(Cl)Cl)N1CCCCC1 (configuration not stated)
T/C [14]: 101 % of control | T/C [15]: 95 % of control | T/C [16]: 100 % of control

Fc1ccc2nc3ccccc3c(SCCCCCSc3c4ccccc4nc4ccc(F)cc34)c2c1
T/C (dose: 60.0 mg/kg/injection, schedule: Q01DX005 (ip), vehicle: Klucel (hydroxypropylcellulose) (HPC)): 94 % of control | T/C (dose: 120.0 mg/kg/injection, schedule: Q01DX005 (ip), vehicle: Klucel (hydroxypropylcellulose) (HPC)): 90 % of control

Cc1ccc2occ(/C=N/NC(N)=S)c(=O)c2c1
T/C [6]: 90 % of control | T/C [7]: 97 % of control

C=CCSc1nc2ccc(N3C(=O)C4C5C=CC(C5)C4C3=O)cc2s1 (configuration not stated)
T/C [14]: 87 % of control | T/C [15]: 92 % of control | T/C [16]: 93 % of control

Cc1ccccc1CC1c2[nH]c3ccccc3c2CCN1C (configuration not stated)
T/C [3]: 109 % of control | T/C [4]: 109 % of control

Nc1nc(Cc2ccccc2)c(CCCNc2ccccc2)c(=O)[nH]1
T/C (dose: 0.78 mg/kg/injection, schedule: Q01DX009 (ip), vehicle: saline): 100 % of control | T/C (dose: 1.56 mg/kg/injection, schedule: Q01DX009 (ip), vehicle: saline): 100 % of control | T/C (dose: 3.13 mg/kg/injection, schedule: Q01DX009 (ip), vehicle: saline): 102 % of control | T/C (dose: 6.25 mg/kg/injection, schedule: Q01DX009 (ip), vehicle: saline): 100 % of control

CSC1=NC=C(C#N)C2=NC(c3c(F)cccc3Cl)NN12 (configuration not stated)
T/C [3]: 89 % of control | T/C [4]: 89 % of control | T/C [5]: 90 % of control

COc1cc2c(c(OC)c1O)-c1ccc(SC)c(=O)cc1C(NC(C)=O)CC2 (configuration not stated)
T/C (dose: 1.25 mg/kg/injection, schedule: Q01DX009 (ip), vehicle: saline): 117 % of control

COC(=O)C1(CC(=O)c2ccco2)NC(=S)NC(=O)C1C#N (configuration not stated)
T/C [3]: 98 % of control | T/C [4]: 94 % of control | T/C [5]: 93 % of control

COc1ccc2c(c1)OC(C)(C)C(c1ccccc1)=C2c1ccc(OCCBr)c([N+](=O)[O-])c1
T/C [11]: 107 % of control | T/C [12]: 98 % of control | T/C [13]: 101 % of control

O=c1[nH]c2cc([N+](=O)[O-])ccc2nc1/C=C(\O)c1ccc(F)cc1
T/C (dose: 60.0 mg/kg/injection, schedule: Q01DX005 (ip), vehicle: Klucel + Tween-80): 102 % of control | T/C (dose: 120.0 mg/kg/injection, schedule: Q01DX005 (ip), vehicle: Klucel + Tween-80): 86 % of control

NS(=O)(=O)c1cc2c(cc1Cl)NC=NS2(=O)=O
T/C (dose: 18.75 mg/kg/injection, schedule: Q01DX009 (ip), vehicle: Klucel (hydroxypropylcellulose) (HPC)): 100 % of control and 103 % of control | T/C (dose: 37.5 mg/kg/injection, schedule: Q01DX009 (ip), vehicle: Klucel (hydroxypropylcellulose) (HPC)): 104 % of control and 91 % of control | T/C (dose: 75.0 mg/kg/injection, schedule: Q01DX009 (ip), vehicle: Klucel (hydroxypropylcellulose) (HPC)): 104 % of control and 89 % of control | T/C (dose: 150.0 mg/kg/injection, schedule: Q01DX009 (ip), vehicle: Klucel (hydroxypropylcellulose) (HPC)): 104 % of control and 90 % of control | T/C (dose: 225.0 mg/kg/injection, schedule: Q01DX009 (ip), vehicle: Klucel (hydroxypropylcellulose) (HPC)): 99 % of control and 100 % of control
